PubChem BioAssay AID2060610 (Molecular Pharmacology Branch, DTP, NCI, 2025)
Several values for one entry are separate records, joined by “and”; a condition that tells them apart may be missing. Equal entries are not always repeated.

Test system: 616215-338-R-J1-PDC complex spheroids, viability % test/control
Test: Anticancer human tumor 616215-338-R-J1-PDC patient-derived colon adenocarcinoma cell line growth inhibition [CLK]
Conditions: for viability, T/C: stronger effect = lower value
Source text: A high-throughput screen of multi-cell type tumor spheroids was designed to identify active combinations of […] and targeted small molecules. Complex spheroids include a stromal component modeled by human endothelial cells (HUVEC) and fibroblasts modeled by human mesenchymal stem cells (MSCs). The concentration ranges selected for each drug and investigational agent were based upon clinically achievable concentrations if the clinical Cmax of the agent was known.
Compounds. The drugs and investigational agents: cirtuvivint (SM08502; NSC835563), CC-671 (NSC850746), vemurafenib (NSC761431), tapotoclax (NSC804041), sotorasib (NSC818433), adagrasib (NSC831453), MRTX-1133 (NSC836407), BAY2416964 (NSC825713), copanlisib (NSC816437), inavolisib (NSC800729), abemaciclib (NSC768073), osimertinib (NSC779217), entinostat (NSC756642), eltanexor (KPT-8602, NSC794443), venetoclax (NSC766270), ceralasertib (NSC777638), bortezomib (NSC756655), olaparib (NSC753686), talazoparib (NSC767125), alisertib (NSC759677), peposertib (NSC802822), gemcitabine (NSC613327), 5-fluorouracil (NSC19893), SN-38 (NSC673596), oxaliplatin (NSC266046), paclitaxel (NSC125973), and doxorubicin (NSC123127), were obtained from the National Cancer Institute (NCI) Developmental Therapeutics Program Chemical Repository. The FDA-approved anticancer drug set is available from the Developmental Therapeutics Program at https://dtp.cancer.gov/organization/dscb/obtaining/available plates.htm. […] The stock solutions were prepared in dimethyl sulfoxide (DMSO, Sigma-Aldrich, St. Louis, MO, cat. D2650), except for the platinum complexes which were prepared in saline (Quality Biological, Gaithersburg, MD, cat. 114-055-101), at 800-fold the tested concentration and stored at -70 degrees C prior to their use. All drugs and investigational agents were tested over a range starting from a high concentration at or near the clinical Cmax and decreasing in half-log increments. If the clinical Cmax for an agent had not been determined, the highest concentration tested was 10 microM.
Cell Culture. All cells were maintained in an incubator at 37 degrees C and 5% CO2 with 95% humidity. The PDC lines were cultured according to standard operating procedures established by the NCI PDMR. Briefly, all PDCs were thawed and cultured in Matrigel-coated flasks prepared with a working solution of 1X Ham's F-12 nutrient mix, without supplementation (Invitrogen, Waltham, MA, cat. 11765054), 100 U/mL penicillin-streptomycin (Invitrogen, cat. 15140122), and 2.5% Matrigel (Corning Inc., Corning, NY, cat. 354248) for the first three passages. The 947758-054-R-J2-PDC line was cultured in 6B/Colon 1A media, which includes advanced DMEM/F-12 (Thermo Fisher Scientific, cat. 12634028), 10 mM HEPES (Thermo Fisher Scientific, cat. 15630080), 1X GlutaMAX supplement (Thermo Fisher Scientific, cat. 35050061), 0.1 mg/mL primocin (InvivoGen, cat. ant-pm-2), 10% defined fetal bovine serum, heat inactivated (HyClone Laboratories Inc., cat. SH30070.03HI), 1.25 mM N-Acetyl-L-cysteine (Sigma-Aldrich, cat. A9165), 10 mM nicotinamide (Sigma-Aldrich, cat. N0636), 1X B-27 supplement (Thermo Fisher Scientific, cat. 17504044), 1X N-2 supplement (Thermo Fisher Scientific, cat. 17502048), and 10 microM Y-27632 dihydrochloride (Tocris Bioscience, cat. 1254). The 876862-298-R-J1-PDC was cultured in 6E media, which includes all 6B/Colon 1A media components plus 50% L-WRN conditioned media (ATCC, cat. CRL-3276), 50 ng/mL recombinant human EGF recombinant protein (hEGF; Thermo Fisher Scientific, cat. PHG0311), 10 ng/mL recombinant human fibroblast growth factor 10 (hGFG-10; PeproTech, cat. 100-26), 1 ng/mL recombinant human fibroblast growth factor 2 (hFGF-2; PeproTech, cat. 100-18B), and 1 µM prostaglandin E2 (PGE2; Tocris, cat. 2296). The 227483-062-R1-J1-PDC line was cultured in Panc media, containing all 6E components except hFGF-2, with the addition of 500 nM SB-431542 (Selleckchem, cat. S1067) and 10 nM gastrin (Tocris, cat. 3006). […]

[1] = curve of first compound, second compound 0.0316 µM
[2] = curve of first compound, second compound 0.1 µM
[3] = curve of first compound, second compound 0.316 µM
[4] = curve of first compound, second compound 1 µM
[5] = curve of first compound, second compound 3.16 µM
[6] = curve of first compound, second compound 10 µM
[7] = second compound 0.0316 µM, first compound 0.0316 µM
[8] = second compound 0.0316 µM, first compound 0.1 µM
[9] = second compound 0.1 µM, first compound 0.0316 µM
[10] = second compound 0.1 µM, first compound 0.1 µM
[11] = second compound 0.316 µM, first compound 0.0316 µM
[12] = second compound 0.316 µM, first compound 0.1 µM
[13] = second compound 1 µM, first compound 0.0316 µM
[14] = second compound 1 µM, first compound 0.1 µM
[15] = second compound 3.16 µM, first compound 0.0316 µM
[16] = second compound 3.16 µM, first compound 0.1 µM
[17] = second compound 10 µM, first compound 0.0316 µM
[18] = second compound 10 µM, first compound 0.1 µM
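Also: spheroids exposed to agents for 7 days.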
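For viability, T/C in this document: 100% = DMSO vehicle wells.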

Cn1ncnc1[C@H]1c2n[nH]c(=O)c3cc(F)cc(c23)N[C@@H]1c1ccc(F)cc1 + CN1CCN(c2cc(C(=O)Nc3cc4cc(-c5cnn(C)c5)ccc4cn3)ccn2)CC1
IC50 [1]: > 100 nM | IC50 [2]: > 100 nM | IC50 [3]: < 0.316 nM | IC50 [4]: < 0.316 nM | IC50 [5]: < 0.316 nM | IC50 [6]: < 0.316 nM | viability, T/C (second compound 0.0316 µM, first compound 0.000316 µM): 113% | viability, T/C (second compound 0.0316 µM, first compound 0.001 µM): 96.3% | viability, T/C (second compound 0.0316 µM, first compound 0.00316 µM): 99.7% | viability, T/C (second compound 0.0316 µM, first compound 0.01 µM): 122% | viability, T/C [7]: 98.3% | viability, T/C [8]: 112% | viability, T/C (second compound 0.1 µM, first compound 0.000316 µM): 119% | viability, T/C (second compound 0.1 µM, first compound 0.001 µM): 106% | viability, T/C (second compound 0.1 µM, first compound 0.00316 µM): 102% | viability, T/C (second compound 0.1 µM, first compound 0.01 µM): 105% | viability, T/C [9]: 101% | viability, T/C [10]: 69.5% | viability, T/C (second compound 0.316 µM, first compound 0.000316 µM): 29.3% | viability, T/C (second compound 0.316 µM, first compound 0.001 µM): 35.2% | viability, T/C (second compound 0.316 µM, first compound 0.00316 µM): 39.2% | viability, T/C (second compound 0.316 µM, first compound 0.01 µM): 38.7% | viability, T/C [11]: 36.5% | viability, T/C [12]: 32% | viability, T/C (second compound 1 µM, first compound 0.000316 µM): 0.12% | viability, T/C (second compound 1 µM, first compound 0.001 µM): 0.14% | viability, T/C (second compound 1 µM, first compound 0.00316 µM): 1.57% | viability, T/C (second compound 1 µM, first compound 0.01 µM): 0.1% | viability, T/C [13]: 1.12% | viability, T/C [14]: 4.26% | viability, T/C (second compound 3.16 µM, first compound 0.000316 µM): 0.1% | viability, T/C (second compound 3.16 µM, first compound 0.001 µM): 0.14% | viability, T/C (second compound 3.16 µM, first compound 0.00316 µM): 2.13% | viability, T/C (second compound 3.16 µM, first compound 0.01 µM): 0.09% | viability, T/C [15]: 0.08% | viability, T/C [16]: 1.74% | viability, T/C (second compound 10 µM, first compound 0.000316 µM): 0.12% | viability, T/C (second compound 10 µM, first compound 0.001 µM): 0.17% | viability, T/C (second compound 10 µM, first compound 0.00316 µM): 0.13% | viability, T/C (second compound 10 µM, first compound 0.01 µM): 0.13% | viability, T/C [17]: 1.65% | viability, T/C [18]: 0.15%

C#Cc1c(F)ccc2cc(O)cc(-c3ncc4c(N5CC6CCC(C5)N6)nc(OCC56CCCN5CC(F)C6)nc4c3F)c12 (stereo unspecified)
viability, T/C (compound 0.0316 µM): 95.4% and 102% | viability, T/C (compound 0.1 µM): 96.2% and 91.8% | viability, T/C (compound 0.316 µM): 100% and 104% | viability, T/C (compound 1 µM): 119% and 114% | viability, T/C (compound 3.16 µM): 133% and 98.2% | viability, T/C (compound 10 µM): 83.3% and 65.1% | IC50 (curve of compound): > 10000 nM

Nc1ccccc1NC(=O)c1ccc(CNC(=O)OCc2cccnc2)cc1 + CNC(=O)c1ccc(Nc2nc(OC3CCCC3)c3c(-c4ccc5nc(C)oc5c4)c[nH]c3n2)c(OC)c1
IC50 [1]: 5080 nM | IC50 [2]: 85 nM | IC50 [3]: < 31.6 nM | IC50 [4]: < 31.6 nM | IC50 [5]: < 31.6 nM | IC50 [6]: < 31.6 nM | viability, T/C [7]: 86.2% | viability, T/C [8]: 82% | viability, T/C (second compound 0.0316 µM, first compound 0.316 µM): 80.2% | viability, T/C (second compound 0.0316 µM, first compound 1 µM): 96.7% | viability, T/C (second compound 0.0316 µM, first compound 3.16 µM): 72.5% | viability, T/C (second compound 0.0316 µM, first compound 10 µM): 17.7% | viability, T/C [9]: 56.1% | viability, T/C [10]: 48.9% | viability, T/C (second compound 0.1 µM, first compound 0.316 µM): 37.3% | viability, T/C (second compound 0.1 µM, first compound 1 µM): 36.1% | viability, T/C (second compound 0.1 µM, first compound 3.16 µM): 36.7% | viability, T/C (second compound 0.1 µM, first compound 10 µM): 10.6% | viability, T/C [11]: 40.7% | viability, T/C [12]: 39.4% | viability, T/C (second compound 0.316 µM, first compound 0.316 µM): 35.9% | viability, T/C (second compound 0.316 µM, first compound 1 µM): 34% | viability, T/C (second compound 0.316 µM, first compound 3.16 µM): 29.3% | viability, T/C (second compound 0.316 µM, first compound 10 µM): 7.21% | viability, T/C [13]: 42.7% | viability, T/C [14]: 36.7% | viability, T/C (second compound 1 µM, first compound 0.316 µM): 32.8% | viability, T/C (second compound 1 µM, first compound 1 µM): 29.1% | viability, T/C (second compound 1 µM, first compound 3.16 µM): 24.8% | viability, T/C (second compound 1 µM, first compound 10 µM): 6.92% | viability, T/C [15]: 35.1% | viability, T/C [16]: 35.8% | viability, T/C (second compound 3.16 µM, first compound 0.316 µM): 28.5% | viability, T/C (second compound 3.16 µM, first compound 1 µM): 26.9% | viability, T/C (second compound 3.16 µM, first compound 3.16 µM): 22.7% | viability, T/C (second compound 3.16 µM, first compound 10 µM): 3.91% | viability, T/C [17]: 34.3% | viability, T/C [18]: 30.8% | viability, T/C (second compound 10 µM, first compound 0.316 µM): 28% | viability, T/C (second compound 10 µM, first compound 1 µM): 24% | viability, T/C (second compound 10 µM, first compound 3.16 µM): 23.8% | viability, T/C (second compound 10 µM, first compound 10 µM): 3.95%
